Assays:
NRK2 = target: T1, NRK2 (Homo sapiens, UniProt Q9NPI5); assay: HPLC of conversion of NR to NMN by purified enzyme; format: biochemical
T1 construct: gene NMRK2; recombinant human NRK2 (CDS of NM_170678.2) in pET22b, E. coli Rosetta (DE3)

NRK1 = target: T2, NRK1 (Homo sapiens, UniProt Q9NWW6); assay: HPLC of conversion of NR to NMN by purified enzyme; format: biochemical
T2 construct: gene NMRK1; recombinant human NRK1 (CDS of NM_017881.3) in pET22b, E. coli Rosetta (DE3)
T2 sequence (Q9NWW6 1-199): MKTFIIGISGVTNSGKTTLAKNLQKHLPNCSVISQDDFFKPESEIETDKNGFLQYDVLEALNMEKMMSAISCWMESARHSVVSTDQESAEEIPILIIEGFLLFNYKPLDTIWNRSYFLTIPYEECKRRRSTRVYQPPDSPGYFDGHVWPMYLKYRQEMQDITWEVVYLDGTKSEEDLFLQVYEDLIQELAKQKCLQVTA

T1 sequence (Q9NPI5 whole entry): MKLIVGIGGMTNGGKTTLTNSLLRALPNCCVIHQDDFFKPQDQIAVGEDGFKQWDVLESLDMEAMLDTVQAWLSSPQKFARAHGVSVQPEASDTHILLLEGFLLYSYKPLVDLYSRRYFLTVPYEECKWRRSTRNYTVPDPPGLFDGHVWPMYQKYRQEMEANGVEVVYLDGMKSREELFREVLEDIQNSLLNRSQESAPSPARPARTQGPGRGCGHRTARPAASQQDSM

- HPLC of conversion of NR to NMN by purified enzyme (NRK2): 17.28 pmol NR/µg/h
- HPLC of conversion of NR to NMN by purified enzyme (NRK1): 12.03 pmol NR/µg/h
SMILES: NC(=O)c1ccc[n+]([C@@H]2O[C@H](CO)[C@@H](O)[C@H]2O)c1 [NR, nicotinamide riboside]

Source: article PMC11429243, “The Fluorinated NAD Precursors Enhance FK866 Cytotoxicity by Activating SARM1 in Glioblastoma Cells” (Biology, 2024)
